The values that follow come from the SangsterLogP compilation.

The first series in a line: method code SF-AS, from DOI: 10.1021/jm00266a011, PMID: 4583365.
Details: not given
Turning to `O=C(NC(CO)C(O)c1ccc([N+](=O)[O-])cc1)c1ccccc1` (stereo not given), the lipophilicity (logP) (commonly a log measure of how a compound divides between an organic and an aqueous phase) was found to be 1.63.

In the case of `N#Cc1ccc([C@@H](O)[C@@H](CO)NC(=O)C(Cl)Cl)cc1`, the log partition coefficient (logP) came to 1.29.

Regarding `O=C(CF)NC(CO)C(O)c1ccc([N+](=O)[O-])cc1` (stereo not given), the logP was 0.15.

In turn, `CC(Cl)C(=O)NC(CO)C(O)c1ccc([N+](=O)[O-])cc1` (stereo not given) gave a log partition coefficient (logP) of 0.98.

`O=C(N[C@@H](CO)[C@@H](O)c1ccc(I)cc1)C(Cl)Cl` (relative stereo) gave a logP of 2.22.

`N#CC(C(=O)NC(CO)C(O)c1ccc([N+](=O)[O-])cc1)c1ccccc1` (stereo not given) yielded a log partition coefficient (logP) of 1.47.

In the case of `O=C(CCl)NC(CO)C(O)c1ccc([N+](=O)[O-])cc1` (stereo not given), the logP amounted to 0.59.

On to `O=C(N[C@H](CO)[C@H](O)c1ccc([N+](=O)[O-])cc1)C(Br)Br`, for which the logP was 1.36.

In turn, `O=C(N[C@H](CO)[C@H](O)c1ccc(Br)cc1)C(Cl)Cl` had a logP of 1.87.

`O=C(NC(CO)C(O)c1ccc([N+](=O)[O-])cc1)C(Cl)(Cl)Cl` (stereo not given): the logP is 1.97.

In turn, `O=C(NC(CO)C(O)c1ccccc1)C(Cl)Cl` (stereo not given) showed a logP of 0.94.

Regarding `CCC(CC)C(=O)N[C@H](CO)[C@H](O)c1ccc([N+](=O)[O-])cc1`, the lipophilicity (logP) was determined as 1.71.

In turn, `CC(C)C(=O)N[C@H](CO)[C@H](O)c1ccc([N+](=O)[O-])cc1` came in with a logP of 0.88.

For the compound `O=C(Cc1ccccc1)NC(CO)C(O)c1ccc([N+](=O)[O-])cc1` (stereo not given), the logP amounted to 1.52.

In turn, `CCCCCCCCN(C)/N=N/c1nc[nH]c1C(N)=O` gave a logP of 3.22.

In turn, `CC(=O)NC(CO)C(O)c1ccc([N+](=O)[O-])cc1` (stereo not given) had a log partition coefficient (logP) of -0.03.

Compound `O=C(NC(CO)C(O)c1ccc([N+](=O)[O-])cc1)C(F)(F)F` (stereo not given) gave a lipophilicity (logP) of 1.07.

`O=C(CI)N[C@H](CO)[C@H](O)c1ccc([N+](=O)[O-])cc1` registered a logP of 1.03.

`CCCC(=O)NC(CO)C(O)c1ccc([N+](=O)[O-])cc1` (stereo not given) came in with a log partition coefficient (logP) of 0.87.

`O=C(N[C@H](CO)[C@H](O)c1ccc(-c2ccccc2)cc1)C(Cl)Cl` had a log partition coefficient (logP) of 2.86.

The compound `O=C(N[C@H](CO)[C@H](O)c1ccc([N+](=O)[O-])cc1)C(Br)(Br)Br` came in with a logP of 2.17.

`O=C(N[C@H](CO)[C@H](O)c1ccc([N+](=O)[O-])cc1)C(F)F` gave a logP of 0.42.

The same series, now with this note: pH 7.4.
For `CC(C)(C)C(=O)N[C@H](CO)[C@H](O)c1ccc([N+](=O)[O-])cc1`, the logD (as a rule, the decadic logarithm of the distribution of all forms, ionised or not, between an organic phase and buffer at a given pH) came to 1.33.

The next series is described as follows: method code SF, from DOI: 10.1021/jm00266a011, PMID: 4583365.
Details: not given
`CN(Cc1ccccc1)/N=N/c1nc[nH]c1C(N)=O` had a logP of 1.54.

Consider `N#CCC(=O)NC(CO)C(O)c1ccc([N+](=O)[O-])cc1` (stereo not given), for which the logP was -0.22.
